In the supplement of paper PMC13386468:
pIC50: −log10 of the molar value.

Experiments:
Assay in all cases: IC50 for competition of protein binding to Kinobeads
Details in all cases: assay detail: Kinobeads competition in P. falciparum blood-stage lysate
UniProt A0A144A2H0 = molecular target: UniProt A0A144A2H0
UniProt C0H551 = molecular target: UniProt C0H551
UniProt C0H564 = molecular target: UniProt C0H564
UniProt C6KSV4 = molecular target: UniProt C6KSV4
UniProt C6KT50 = molecular target: UniProt C6KT50
Sequence of UniProt C6KT50 (C6KT50 whole entry): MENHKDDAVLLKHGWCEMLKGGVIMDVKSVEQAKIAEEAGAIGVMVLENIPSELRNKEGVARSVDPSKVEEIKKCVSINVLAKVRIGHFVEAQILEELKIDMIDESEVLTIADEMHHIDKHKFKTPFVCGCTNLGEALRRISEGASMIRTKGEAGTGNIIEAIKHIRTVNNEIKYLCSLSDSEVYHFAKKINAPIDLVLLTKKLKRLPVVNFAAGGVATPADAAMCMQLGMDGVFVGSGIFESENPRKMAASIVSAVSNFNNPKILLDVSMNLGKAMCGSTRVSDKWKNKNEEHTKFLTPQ

UniProt C6KTC7 = molecular target: UniProt C6KTC7
UniProt O77306 = molecular target: UniProt O77306
UniProt O77345 = molecular target: UniProt O77345
UniProt O77385 = molecular target: UniProt O77385
UniProt O97231 = molecular target: UniProt O97231
Sequence of UniProt O97231 (O97231 whole entry): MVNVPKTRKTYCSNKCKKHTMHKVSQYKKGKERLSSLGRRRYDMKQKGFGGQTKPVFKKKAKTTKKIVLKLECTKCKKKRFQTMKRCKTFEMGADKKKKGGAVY

UniProt O97249 = molecular target: UniProt O97249
Sequence of UniProt O97249 (O97249 whole entry): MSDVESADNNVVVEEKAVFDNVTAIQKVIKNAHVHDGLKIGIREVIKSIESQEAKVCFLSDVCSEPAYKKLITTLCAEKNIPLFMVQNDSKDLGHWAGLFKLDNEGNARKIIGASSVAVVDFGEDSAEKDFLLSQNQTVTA

UniProt O97250 = molecular target: UniProt O97250
UniProt Q76NM8 = molecular target: UniProt Q76NM8
UniProt Q76NN8 = molecular target: UniProt Q76NN8
UniProt Q8I0U7 = molecular target: UniProt Q8I0U7
UniProt Q8I283 = molecular target: UniProt Q8I283
UniProt Q8I291 = molecular target: UniProt Q8I291
UniProt Q8I3V8 = molecular target: UniProt Q8I3V8
UniProt Q8I415 = molecular target: UniProt Q8I415
UniProt Q8I4V7 = molecular target: UniProt Q8I4V7
UniProt Q8I5C4 = molecular target: UniProt Q8I5C4
UniProt Q8I5S6 = molecular target: UniProt Q8I5S6
UniProt Q8I5Y3 = molecular target: UniProt Q8I5Y3
UniProt Q8IAW7 = molecular target: UniProt Q8IAW7
UniProt Q8IBJ1 = molecular target: UniProt Q8IBJ1
UniProt Q8IBL5 = molecular target: UniProt Q8IBL5
UniProt Q8IBZ2 = molecular target: UniProt Q8IBZ2
UniProt Q8IDF6 = molecular target: UniProt Q8IDF6
Sequence of UniProt Q8IDF6 (Q8IDF6 whole entry): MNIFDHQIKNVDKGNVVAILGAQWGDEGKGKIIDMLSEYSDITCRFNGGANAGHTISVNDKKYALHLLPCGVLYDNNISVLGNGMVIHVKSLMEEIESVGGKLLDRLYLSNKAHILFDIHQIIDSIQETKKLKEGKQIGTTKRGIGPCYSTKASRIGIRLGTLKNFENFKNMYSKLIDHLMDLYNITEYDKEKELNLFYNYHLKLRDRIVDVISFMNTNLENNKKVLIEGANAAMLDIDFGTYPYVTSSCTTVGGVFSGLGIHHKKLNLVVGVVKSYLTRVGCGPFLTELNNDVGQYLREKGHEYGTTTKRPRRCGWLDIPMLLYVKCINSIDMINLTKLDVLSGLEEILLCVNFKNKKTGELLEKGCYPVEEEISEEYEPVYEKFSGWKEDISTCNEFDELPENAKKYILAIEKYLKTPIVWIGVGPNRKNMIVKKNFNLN

UniProt Q8IDF9 = molecular target: UniProt Q8IDF9
UniProt Q8IDQ9 = molecular target: UniProt Q8IDQ9
Sequence of UniProt Q8IDQ9 (Q8IDQ9 whole entry): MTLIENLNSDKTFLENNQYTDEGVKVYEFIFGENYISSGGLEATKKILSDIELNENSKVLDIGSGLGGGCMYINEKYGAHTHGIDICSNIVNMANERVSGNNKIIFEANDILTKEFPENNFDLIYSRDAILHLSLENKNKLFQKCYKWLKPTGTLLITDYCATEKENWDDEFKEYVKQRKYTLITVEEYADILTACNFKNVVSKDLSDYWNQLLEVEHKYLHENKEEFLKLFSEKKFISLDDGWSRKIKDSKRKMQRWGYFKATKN

UniProt Q8IDV5 = molecular target: UniProt Q8IDV5
UniProt Q8IEF0 = molecular target: UniProt Q8IEF0
UniProt Q8IHR6 = molecular target: UniProt Q8IHR6
UniProt Q8II00 = molecular target: UniProt Q8II00
UniProt Q8II01 = molecular target: UniProt Q8II01
UniProt Q8II27 = molecular target: UniProt Q8II27
UniProt Q8II53 = molecular target: UniProt Q8II53
UniProt Q8II61 = molecular target: UniProt Q8II61
UniProt Q8III6 = molecular target: UniProt Q8III6
UniProt Q8IIM4 = molecular target: UniProt Q8IIM4
UniProt Q8IIR7 = molecular target: UniProt Q8IIR7
Sequence of UniProt Q8IIR7 (Q8IIR7 whole entry): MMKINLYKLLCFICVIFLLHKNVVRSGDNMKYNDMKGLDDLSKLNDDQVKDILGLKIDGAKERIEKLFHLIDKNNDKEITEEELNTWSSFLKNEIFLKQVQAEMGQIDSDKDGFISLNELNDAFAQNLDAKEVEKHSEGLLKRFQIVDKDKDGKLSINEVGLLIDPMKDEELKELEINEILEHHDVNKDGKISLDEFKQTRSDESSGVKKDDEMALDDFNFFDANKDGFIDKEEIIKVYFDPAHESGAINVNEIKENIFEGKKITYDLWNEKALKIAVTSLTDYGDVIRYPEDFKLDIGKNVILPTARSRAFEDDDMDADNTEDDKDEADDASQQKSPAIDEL

UniProt Q8IJQ9 = molecular target: UniProt Q8IJQ9
UniProt Q8IJT1 = molecular target: UniProt Q8IJT1
UniProt Q8IJX3 = molecular target: UniProt Q8IJX3
UniProt Q8IKH3 = molecular target: UniProt Q8IKH3
UniProt Q8IKL1 = molecular target: UniProt Q8IKL1
UniProt Q8IL48 = molecular target: UniProt Q8IL48
UniProt Q8ILK1 = molecular target: UniProt Q8ILK1
UniProt Q8ILK2 = molecular target: UniProt Q8ILK2
UniProt Q8ILP3 = molecular target: UniProt Q8ILP3
Sequence of UniProt Q8ILP3 (Q8ILP3 whole entry): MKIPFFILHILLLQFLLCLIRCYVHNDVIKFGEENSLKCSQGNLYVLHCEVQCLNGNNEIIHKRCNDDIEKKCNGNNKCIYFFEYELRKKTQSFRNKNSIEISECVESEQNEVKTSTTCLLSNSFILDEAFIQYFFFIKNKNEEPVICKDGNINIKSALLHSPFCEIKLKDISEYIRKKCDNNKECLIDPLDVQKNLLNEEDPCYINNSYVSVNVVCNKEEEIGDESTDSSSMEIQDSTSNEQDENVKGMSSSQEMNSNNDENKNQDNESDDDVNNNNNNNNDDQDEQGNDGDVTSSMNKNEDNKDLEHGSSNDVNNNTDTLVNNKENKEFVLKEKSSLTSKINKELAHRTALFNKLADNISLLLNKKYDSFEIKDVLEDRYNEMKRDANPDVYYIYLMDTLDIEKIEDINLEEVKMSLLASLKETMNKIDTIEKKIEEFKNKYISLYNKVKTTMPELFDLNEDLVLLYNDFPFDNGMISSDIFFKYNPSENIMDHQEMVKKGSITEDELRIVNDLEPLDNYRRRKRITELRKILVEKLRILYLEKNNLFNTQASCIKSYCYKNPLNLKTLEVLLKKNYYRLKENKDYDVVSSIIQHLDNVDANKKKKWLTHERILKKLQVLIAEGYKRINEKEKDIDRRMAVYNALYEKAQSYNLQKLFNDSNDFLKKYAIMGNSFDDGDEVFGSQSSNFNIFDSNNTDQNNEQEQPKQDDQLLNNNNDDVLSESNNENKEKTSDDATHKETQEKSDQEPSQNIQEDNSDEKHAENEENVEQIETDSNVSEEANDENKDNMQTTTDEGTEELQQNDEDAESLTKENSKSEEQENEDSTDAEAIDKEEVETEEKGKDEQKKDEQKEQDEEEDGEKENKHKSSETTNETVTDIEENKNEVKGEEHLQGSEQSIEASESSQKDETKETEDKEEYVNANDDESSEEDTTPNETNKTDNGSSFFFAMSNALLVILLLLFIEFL

UniProt Q8IM71 = molecular target: UniProt Q8IM71

Measured: pIC50
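Further: native unpurified kinases from lysate captured on beads bearing immobilized kinase inhibitors, with bead-bound kinases quantified by mass spectrometry across compound doses.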

Sequence of UniProt A0A144A2H0 (A0A144A2H0 whole entry): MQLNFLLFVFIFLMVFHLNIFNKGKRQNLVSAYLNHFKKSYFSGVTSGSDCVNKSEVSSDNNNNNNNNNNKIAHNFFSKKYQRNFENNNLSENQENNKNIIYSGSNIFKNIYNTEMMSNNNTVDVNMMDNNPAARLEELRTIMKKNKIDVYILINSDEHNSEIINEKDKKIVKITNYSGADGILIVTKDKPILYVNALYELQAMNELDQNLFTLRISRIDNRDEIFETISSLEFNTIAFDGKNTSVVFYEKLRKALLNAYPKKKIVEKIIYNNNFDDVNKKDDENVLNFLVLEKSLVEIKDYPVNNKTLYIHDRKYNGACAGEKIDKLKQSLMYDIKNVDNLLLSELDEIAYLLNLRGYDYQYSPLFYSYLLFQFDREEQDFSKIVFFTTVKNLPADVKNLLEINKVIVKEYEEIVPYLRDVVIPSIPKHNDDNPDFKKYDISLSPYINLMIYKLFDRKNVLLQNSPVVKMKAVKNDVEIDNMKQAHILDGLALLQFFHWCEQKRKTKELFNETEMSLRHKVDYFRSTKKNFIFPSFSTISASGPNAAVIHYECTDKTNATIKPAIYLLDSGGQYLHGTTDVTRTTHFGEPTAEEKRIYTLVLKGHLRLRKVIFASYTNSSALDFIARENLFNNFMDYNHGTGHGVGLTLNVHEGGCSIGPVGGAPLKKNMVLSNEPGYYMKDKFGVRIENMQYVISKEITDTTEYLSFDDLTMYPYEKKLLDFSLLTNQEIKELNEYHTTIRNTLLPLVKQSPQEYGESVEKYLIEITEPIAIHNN

O=c1[nH]c2ccc(Cl)cc2c(NC2CN3CCC2CC3)c1-c1nc2ccccc2[nH]1 (stereo unspecified) [CHIR-124]
< 4.70: all assays above
